{
  "source": "paper PMC12030277",
  "about": "“Is Copper-61 the New Gallium-68? Automation and Preclinical Proof-of-Concept of ^61Cu-Based Radiopharmaceuticals for Prostate Cancer Imaging” (Pharmaceuticals, 2025)",
  "key": {"[1]": {"tested_on": "PSMA-positive tumor xenografts (LNCaP)", "set-up": "species or system mice", "details": "mouse, in vivo", "experimental": "Animal studies were approved by the Animal Welfare Committee of the Institute of Nuclear Sciences Applied to Health (ICNAS; ORBEA 01-2018) and the Portuguese National Authority for Animal Health (DGAV). Male athymic Swiss nude mice aged 9-12 weeks (34–36 g) were supplied by ICNAS, housed under pathogen-free conditions in individually ventilated cages with controlled temperature/humidity (22 °C/55%) environment on a 12 h light–dark cycle, and provided with food and water ad libitum. […] Tumor growth was monitored with a digital caliper and PET/MRI scans were performed when tumor xenografts reached 5–7 mm in diameter (~75–130 mm^3, as calculated by the formula Length × Width^2 × 0.5), approximately 9 weeks after inoculation.\n[^61Cu]Cu-DOTAGA-PSMA-I&T (~0.37 MBq/g; ~3.56 nmol; N = 2) or [^61Cu]Cu-NODAGA-PSMA-I&T (~0.37 MBq/g; ~0.653 nmol; N = 3) in NaCl 0.9% with 10% EtOH was intravenously injected into the tail vein of anesthetized mice. […] Respiratory rate and body temperature were monitored throughout the imaging procedures (SA Instruments, Inc.; Stony Brook, NY, USA). […] For quantitative PET imaging processing, PMOD v3.6 and FUSION Tool (PMOD Technologies; Zürich, Switzerland; RRID:SCR_016547) were used to delineate volumes of interest (VOIs) on the PET images co-registered with the respective MRI. […] Uptake values were expressed as percentage of injected dose per gram of tissue (% ID/g)."}, "[2]": {"tested_on": "DU145 (PSMA-negative) cells", "assay": "In vitro uptake assay, DU145 cells", "format": "cell-based, human", "details": "0.5 nM, 37 °C, up to 2 h, N = 2–5 in duplicate", "experimental": "(§1) The human PCa cell lines LNCaP (PSMA-positive) (American Type Culture Collection (ATCC), CRL-1740; Manassas, VA, USA) and DU145 (PSMA-negative) (kindly provided by Dr. Carmen Jerónimo Lab at IPO-Porto) were maintained at 37 °C in a humidified incubator enriched with 5% carbon dioxide. The cells were grown in Roswell Park Memorial Institute (RPMI) 1640 medium (Sigma-Aldrich, R4130; St. Louis, MI, USA) supplemented with 0.2% (w/v) sodium bicarbonate (Sigma-Aldrich, S6297), 10% heat-inactivated fetal bovine serum (FBS; Gibco, A5256801; Grand Island, NY, USA), 1 mM sodium pyruvate (Gibco, 11360-070), and 1% antibiotic-antimycotic (Anti-Anti 100X, Gibco, 15240-062). LNCaP and DU145 cells were seeded in 12-well plates (0.3 × 10^6 cells/well/mL) 48 h before the experiments and the day before, respectively. The multiwell plates used for the LNCaP cell line were previously coated with poly-l-lysine (PLL, Innoprot; Bizcaia, Spain) for 4–6 h to prevent cell detachment during the assays. Both PSMA-positive and -negative cells were incubated with 0.5 nM of ^61Cu-radiopharmaceuticals at 37 °C for different time periods up to 2 h. […] The radioactivity of both the supernatant and cellular fraction was measured in a CRC-55tW gamma-well counter (Mirion Technologies; Atlanta, GA, USA). Cellular uptake was calculated as a percentage of the total radioactivity measured for each well. […]"}, "[3]": {"set-up": "species or system mice", "details": "mouse"}, "[4]": {"tested_on": "LNCaP (PSMA-positive) cells", "assay": "In vitro uptake assay, LNCaP cells", "format": "cell-based, human", "details": "0.5 nM, 37 °C, up to 2 h, later time points; % of total radioactivity per well, gamma counter; mean ± SEM, N = 2–5 in duplicate", "experimental": "as §1"}},
  "data": [
    {"molecule": "O=C(O)CC[C@H](NC(=O)N[C@@H](CCCCNC(=O)CCCCCCC(=O)NCCCC[C@@H](NC(=O)[C@@H](Cc1ccccc1)NC(=O)[C@@H](Cc1ccc(O)c(I)c1)NC(=O)CCC(C(=O)O)N1CCN(CC(=O)O)CCN(CC(=O)O)CC1)C(=O)O)C(=O)O)C(=O)O", "note": "(stereo partly shown) [[^61Cu]Cu-NODAGA-PSMA-I&T, metal not drawn]", "values": [
      {"measurement": "clearance route", "setting": "[1]", "value": "clearance predominantly through the renal pathway"},
      {"measurement": "cellular uptake in DU145 cells", "setting": "[2]", "value": "remained at basal levels"},
      {"measurement": "in vivo stability", "setting": "[3]", "value": "remarkable in vivo metabolic stability"},
      {"measurement": "maximum cellular uptake in LNCaP cells", "setting": "[4]", "value": "13.16 ± 0.15", "unit": "%"}
    ]},
    {"molecule": "[^61Cu]Cu-DOTAGA-PSMA-I&T", "values": [
      {"measurement": "cellular uptake in DU145 cells", "setting": "[2]", "value": "remained at basal levels"},
      {"measurement": "in vivo stability", "setting": "[3]", "value": "poor kinetic stability in vivo"},
      {"measurement": "maximum cellular uptake in LNCaP cells", "setting": "[4]", "value": "14.09 ± 0.84", "unit": "%"}
    ]}
  ]
}
